# According to patent US11413278B2, “Compounds and methods for promoting stress resistance” (priority 2015, dated 2022):
# Where two headings read alike, the source gives them in different places.
# Tests used:
# WI-38 cells [1] = experiment: Propidium iodide (PI) cell-death imaging upon H2O2 stress; format: cell-based, human; details: for Assay 7: H2O2-resistant, at 10 uM, validated by propidium iodide (PI) cell-death imaging: w/H2O2, 3 hrs/4 hrs/5 hrs, YES/NO; for cytotoxicity at 10 µM: Homo sapiens, WI-38
# [2] = test system: human dermal fibroblast (HDF) primary cells; experiment: H2O2-resistance in primary human dermal fibroblasts; format: cell-based; details: for Assay 6: H2O2-resistant, at 10 uM, human dermal fibroblast (HDF) primary cells: YES/NO; for fold induction at 10 µM: Homo sapiens
# LC3A/B puncta = experiment: Autophagy induction analysis (LC3A/B puncta immuno-staining); format: cell-based, human; details: for Exp. 2, normalized change of nuclei numbers (Less cells): 20X objective, lysosomal LAMP co-staining
# Protocol: Immuno-staining of LC3A/B was performed, following a standard protocol. Briefly, WI-38 cells were treated with small molecules for 24 hrs, and then processed and incubated with primary antibody (Cell Signaling, rabbit anti-LC3A/B, 1:100) overnight at 4° C. Next day, samples were processed and incubated with fluorophore-conjugated secondary antibody and further incubated with DAPI dye. Images were collected on the INCell Analyzer 2000 (Experiment 1: 10× objective; Experiment 2: 20× objective) and analyzed with the Developer Toolbox. For Experiment 2, lysosomal-associated membrane protein 2 (LAMP2) was also counter-stained to identify the LC3A/B puncta that colocalize with lysosome and the data were analyzed by the MetaXpress software (Molecular Devices, version 5.1). The intensity of total (Exp. 1) or LAMP2-colocalized LC3A/B puncta (Exp. 2) was normalized the total numbers nuclei in the fields.
# These assays were performed, following the same procedures to analyze DNA-damage markers. WI-38 cells were incubated with small molecules for 24 hrs, and then processed and incubated with primary antibody (rabbit anti-LC3A/B, 1:100) overnight at 4 C. The next day, samples were processed and incubated with fluorophore-conjugated secondary antibody and further incubated with DAPI dye. Images were collected on an INCell Analyzer 2000 and analyzed with the Developer software. Total LC3A/B puncta intensity was normalized the total numbers of DAPI-positive nuclei.
# [3] = test system: phosphorylated γH2A.X and TP53BP1; experiment: DNA damage marker analysis (immuno-staining); details: for activity at 10 µM: Homo sapiens, WI-38, 24 h
# Summary of the method: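 Immunofluorescence read-out for phospho-γH2A.X (Ser-139) and phospho-TP53BP1 (Ser-1778), with DAPI nuclear stain and automated imaging at 10×. WI-38 cells (~8,000 per well) were exposed to small molecules for 24 h after 24 h of culture, with doxorubicin (300 nM, 24 h) or H2O2 (700 μM, 3 h) as positive damage controls.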
# WI-38 cells [4] = experiment: Long-term effects on cell viability (5 days, ATP; morphology, PI imaging); format: cell-based; details: 10 μM; for Luminescence signal for ATP measurement, day-1 Average / Luminescence signal for ATP measurement, day-2 Average / Luminescence signal for ATP measurement, day-3 Average / Luminescence signal for ATP measurement, day-4 Average / Luminescence signal for ATP measurement, day-5 Average: n = 6; for viability at 10 µM: Homo sapiens, WI-38, 120 h, DMSO ctrl = 100.0%, read-out: ATP luminescence by day-5 normalized; for Luminescence signal for ATP measurement, day-5 Average / viability at 10 µM: day-5;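 for Luminescence signal for ATP measurement, day-2 Average: compounds at 10 µM with ATP read daily over 5 days of treatment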;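 for Luminescence signal for ATP measurement, day-3 Average: compounds at 10 µM with ATP read daily over 5 days of treatment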;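 for Luminescence signal for ATP measurement, day-4 Average: compounds at 10 µM with ATP read daily over 5 days of treatment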;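 for Luminescence signal for ATP measurement, day-5 Average: compounds at 10 µM with ATP read daily over 5 days of treatment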
# [5] = Summary score for characterization of 38 core set hits; details: for D = Triple resistant: 2-point score, multiplex resistance (cadmium, MMS, H2O2); for C = H2O2- & Cd-resistant: score, resistance to both H2O2 and cadmium
# Protocol: 38 “core set” small molecules are listed and are assigned a score, based on the result for each individual characterization. From our small molecule screen for H2O2-resistance, we isolated 61 top hits. […] Specifically, a 2-point score was assigned to the most well-known and prominent longevity-related phenotypes, such as multiplex resistance, activation of FOXO3 and/or NRF2, and down-regulation of mTOR. Small molecules were also analyzed for their ability to extend C. elegans' lifespan in 4 to 6 independent trials, and the lifespan score scale is from 0 to 2: 0 for no obvious effects, 1 for lifespan extension observed in 2 trials, 2 for observed in more than 2 trials. Certain molecules appeared to have DNA-damaging effects and/or potential cell-toxicity in cultured human cells, and they receive a negative point.
# [6] = pre-treatment at 10 uM, 3.5 hours of H2O2, DMSO control 27.4% ± 6.5%, */**/*** = reduced by one/two/three standard deviations, read-out: Percentage of propidium iodide-positive dead cells (under H2O2 stress treatment), at 10 uM
# [7] = Exp. 1, 10 μM, 10X objective, WI-38 cells
# [8] = read-out: Experiment 1, H2A.X-P DNA damage foci staining (no H2O2 stress treatment), at 10 uM
# [9] = read-out: Experiment 2, H2A.X-P DNA damage foci staining (no H2O2 stress treatment), at 10 uM
# [10] = read-out: Experiment 2, H2A.X-P DNA damage foci staining (under H2O2 stress treatment), at 10 uM
# [11] = read-out: Experiment 2, TP53BP1-P DNA damage foci staining (no H2O2 stress treatment), at 10 uM
# [12] = Batch 1, day-0 luminescence = 320956 ± 24708
# [13] = H2O2 3 hrs, 10 uM, n = 6, negative control 5.44% ± 0.79%, read-out: Percentage of propidium iodide-positive dead cells (under H2O2 stress treatment), 3 hrs
# [14] = Experiment 1, HDF cells, read-out: Experiment 1, HDF cells (under H2O2 stress treatment), at 10 uM (fold change)
# [15] = Experiment 2, HDF cells, read-out: Experiment 2, HDF cells (under H2O2 stress treatment), at 10 uM (fold change)
# [16] = read-out: Experiment 2, TP53BP1-P DNA damage foci staining (under H2O2 stress treatment), at 10 uM
# [17] = Batch 2, day-0 luminescence = 229312 ± 17487
Compound,"Assay 7: H2O2-resistant, at 10 uM, validated by propidium iodide (PI) cell-death imaging (WI-38 cells [1]; 10 uM)",cytotoxicity at 10 µM (WI-38 cells [1]; [6]),"Assay 6: H2O2-resistant, at 10 uM, human dermal fibroblast (HDF) primary cells [2]",H = Potential Autophagy Induction (LC3A/B puncta; score),H = Potential Autophagy Induction (LC3A/B puncta; summary score),"activity at 10 µM [3, 8]","activity at 10 µM [3, 9]","activity at 10 µM [3, 10]","activity at 10 µM [3, 11]","P = Potential DNA-damaging ([3]; human, 24 h)","R = Potential DNA damaging ([3]; human, 24 h)","O = Potential toxicity (WI-38 cells [4]; human, 5 days)","Q = Potential toxicity (WI-38 cells [4]; human, 5 days)",D = Triple resistant [5],S = Sum of Negative scores ([5]; human),C = H2O2- & Cd-resistant [5],cytotoxicity at 10 µM (WI-38 cells [1]; [13]),"fold induction at 10 µM [2, 14]","fold induction at 10 µM [2, 15]","activity at 10 µM [3, 16]",other results
O=C(Nc1ccc(Cl)c(Cl)c1)c1ccc([N+](=O)[O-])o1 [Gr-1G],YES,34.4%,YES,1,1,150%,179%,63.3%,256%,0,0,1,0,0,1,1,,,,,"Assay 15: Potential autophagy induction by LC3A/B puncta assays (LC3A/B puncta; 10 uM & 20 uM, YES/NO): YES; Exp. 1, induction of LC3A/B puncta (Up), total intensity normalized by total number of nuclei in the fields (LC3A/B puncta; [7]): p < 0.001; Up, 2006%,; Exp. 1, normalized change of nuclei numbers (Less cells) (LC3A/B puncta; [7]): Less cells, 41%,; Exp. 2, normalized change of nuclei numbers (Less cells) (LC3A/B puncta; Exp. 2, 10 μM, WI-38 cells): Less cells, 47%,; Exp. 2, normalized change of nuclei numbers (Less cells) (LC3A/B puncta; Exp. 2, 20 μM, WI-38 cells): Less cells, 67%,; Luminescence signal for ATP measurement, day-1 Average (WI-38 cells [4]; [12]): 449436; Luminescence signal for ATP measurement, day-2 Average (WI-38 cells [4]; [12]): 530748; Luminescence signal for ATP measurement, day-3 Average (WI-38 cells [4]; [12]): 651695; Luminescence signal for ATP measurement, day-4 Average (WI-38 cells [4]; [12]): 866631; Luminescence signal for ATP measurement, day-5 Average (WI-38 cells [4]; [12]): 955703; viability at 10 µM (WI-38 cells [4]; Batch 1): 93.1%"
O=[N+]([O-])c1ccccc1S(=O)(=O)Nc1cccc2cccnc12 [Gr-3A],YES,12.4%,YES,0,0,139%,338%,143%,334%,1,1,0,0,0,1,1,5.54%,2.38,1.67,66.1%,"Reduction of ATP content after 5 days of continuous incubation (WI-38 cells [4]; human, 5 days): more than 40%"
Cc1ccc(S(=O)(=O)Nc2cccc3cccnc23)cc1 [Gr-3B],YES,2.6%,YES,0,0,81.9%,228%,130%,244%,0,0,0,1,0,0,0,4.63%,3.1,1.59,66.3%,"Luminescence signal for ATP measurement, day-1 Average (WI-38 cells [4]; [17]): 184710; Luminescence signal for ATP measurement, day-2 Average (WI-38 cells [4]; [17]): 110226; Luminescence signal for ATP measurement, day-3 Average (WI-38 cells [4]; [17]): 109008; Luminescence signal for ATP measurement, day-4 Average (WI-38 cells [4]; [17]): 52193; Luminescence signal for ATP measurement, day-5 Average (WI-38 cells [4]; [17]): 63138; viability at 10 µM (WI-38 cells [4]; Batch 2): 11.4%"
Nc1ccccc1S(=O)(=O)Nc1cccc2cccnc12 [Gr-3C],YES,3.1%,YES,0,0,113%,404%,136%,254%,1,1,0,1,0,2,0,5.13%,6.59,1.69,390%,"Luminescence signal for ATP measurement, day-1 Average (WI-38 cells [4]; [17]): 190045; Luminescence signal for ATP measurement, day-2 Average (WI-38 cells [4]; [17]): 194191; Luminescence signal for ATP measurement, day-3 Average (WI-38 cells [4]; [17]): 270505; Luminescence signal for ATP measurement, day-4 Average (WI-38 cells [4]; [17]): 244033; Luminescence signal for ATP measurement, day-5 Average (WI-38 cells [4]; [17]): 265285; viability at 10 µM (WI-38 cells [4]; Batch 2): 47.7%"
COc1ccc(C(=O)/C=C/c2ccc(F)cc2)c(OC)c1 [Gr-4A],YES,1.9%,YES,0,0,80.2%,75%,105%,155%,,,0,0,0,,1,1.87%,7.16,2.35,287%,"R = Potential DNA damaging ([3]; negative point, cultured human cells): 0; P = Potential DNA-damaging ([3]; summary score): 0; Luminescence signal for ATP measurement, day-1 Average (WI-38 cells [4]; [12]): 501436; Luminescence signal for ATP measurement, day-2 Average (WI-38 cells [4]; [12]): 605711; Luminescence signal for ATP measurement, day-3 Average (WI-38 cells [4]; [12]): 772420; Luminescence signal for ATP measurement, day-4 Average (WI-38 cells [4]; [12]): 995321; Luminescence signal for ATP measurement, day-5 Average (WI-38 cells [4]; [12]): 1019996; viability at 10 µM (WI-38 cells [4]; Batch 1): 99.3%; S = Sum of Negative scores ([5]; sum of columns Q and R): 0"
